The numbers were not newly measured in patent US12435156B2, “Methods for treating neuroblastoma with combination therapy” (MEMORIAL SLOAN-KETTERING CANCER CENTER, priority 2018, dated 2025), which cites them from elsewhere.

One data set has as its target T1, topoisomerase I (Homo sapiens, UniProt P11387).
T1 sequence (P11387 1-765): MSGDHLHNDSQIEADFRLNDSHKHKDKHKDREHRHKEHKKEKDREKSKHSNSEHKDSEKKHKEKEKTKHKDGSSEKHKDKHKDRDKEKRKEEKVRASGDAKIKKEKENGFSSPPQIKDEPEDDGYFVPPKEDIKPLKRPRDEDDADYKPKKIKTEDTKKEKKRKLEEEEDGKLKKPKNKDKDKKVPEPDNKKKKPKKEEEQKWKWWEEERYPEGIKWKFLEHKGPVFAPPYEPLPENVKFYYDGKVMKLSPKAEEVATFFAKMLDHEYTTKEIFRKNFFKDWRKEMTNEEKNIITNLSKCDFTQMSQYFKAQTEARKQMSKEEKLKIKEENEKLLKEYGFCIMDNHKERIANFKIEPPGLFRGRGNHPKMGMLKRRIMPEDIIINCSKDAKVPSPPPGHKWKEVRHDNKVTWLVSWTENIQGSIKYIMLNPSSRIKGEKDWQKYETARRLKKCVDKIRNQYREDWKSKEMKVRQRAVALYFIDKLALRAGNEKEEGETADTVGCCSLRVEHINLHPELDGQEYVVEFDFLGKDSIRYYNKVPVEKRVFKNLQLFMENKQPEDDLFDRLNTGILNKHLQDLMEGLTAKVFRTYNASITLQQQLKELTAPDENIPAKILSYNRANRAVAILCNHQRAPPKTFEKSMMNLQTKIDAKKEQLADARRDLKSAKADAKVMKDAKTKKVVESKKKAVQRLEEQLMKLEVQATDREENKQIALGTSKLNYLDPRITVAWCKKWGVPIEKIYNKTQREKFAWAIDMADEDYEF

For data set [1] the following is noted: human, in vivo.
Test in data set [2]: not given
The source holds these as a separate data set.

Test in data set [3]: not given
The source holds these as a separate data set.

Test in data set [4]: not given
This is another data set of the same source.

For `CCc1c2c(nc3ccc(O[C@@H]4O[C@H](C(=O)O)[C@@H](O)[C@H](O)[C@H]4O)cc13)-c1cc3c(c(=O)n1C2)COC(=O)[C@]3(O)CC` [SN-38G, SN-38 glucuronide], on topoisomerase I, the “Topoisomerase I inhibitor potency/activity” value is “inactive”.

As for `CCc1c2c(nc3ccc(O)cc13)-c1cc3c(c(=O)n1C2)COC(=O)[C@]3(O)CC` [SN-38, 7-ethyl-10-hydroxycamptothecin], the “Topoisomerase I inhibitor potency/activity” value on topoisomerase I is given as “much higher potency than irinotecan”.

Turning to `Cn1nnc2c(C(N)=O)ncn2c1=O` [Temozolomide, 3,4-dihydro-3-methyl-4-oxoimidazo[5,1-d]-as-tetrazine-8-carboxamide], the Dose-limiting side effects result in data set [1] was “hematologic toxicity, myelosuppression, anemia, and leukopenia”. Besides, the “Mean apparent volume of distribution” value (% CV=13%) is 0.4 L/kg. Also, for the setting “in vivo”, the “Kinetics over the therapeutic dosing range” value is on record as “linear kinetics” and the Overall clearance entry is given as “about 5.5 L/hr/m^2”. Moreover, the “Absorption after oral administration” value (oral) is “rapidly and completely absorbed”. Also, the “Time of peak plasma concentrations” value (oral administration) is 1 h. Moreover, where the note is “over 7 days”, the “Administered total radioactive dose recovered in feces” value is recorded as 0.8% and the “Administered total radioactive dose recovered in urine” value was 37.7%. Besides, under “over 7 days, total”, the “Administered total radioactive dose recovered” value is given as “About 38%”. Besides, in the data set with Cytochrome P450 enzymes, the “Role of cytochrome P450 enzymes in metabolism” value is listed as “only a minor role”. For the same compound, the “Stability at physiologic pH” value in data set [2] was “spontaneously hydrolyzed”. In addition, in the data set with human plasma proteins, the “Mean percent bound of drug-related total radioactivity” value was 15%.

Consider “sargramostim: Yeast-derived human recombinant granulocyte-macrophage colony stimulating factor”, for which, in data set [3] (2-8° C.), the “Storage of liquid once the vial has been entered” value was “up to 20 days”. In data set [3] (250 mcg vial reconstituted with 0.5 mL sterile water, 500 mcg/mL), the “pH of reconstituted solution” value was 7.4±0.3. The “Time to administration following reconstitution” value in data set [3] (single-use 250 mcg vials, no preservative) is ≤ 6 h.

For `CCc1c2c(nc3ccc(OC(=O)N4CCC(N5CCCCC5)CC4)cc13)-c1cc3c(c(=O)n1C2)COC(=O)[C@]3(O)CC` [Irinotecan, (S)-4,11-diethyl-4-hydroxy-3,14-dioxo-3,4,12,14-tetrahydro-1H-pyrano[3′,4′:6,7]indolizino[1,2-b]quinolin-9-yl [1,4′-bipiperidine]-1′-carboxylate], the Water solubility result in data set [4] is “water-soluble”. Further, the “Toxicity associated with treatment” value in data set [1] is “severe diarrhea, myelosuppression, and neutropenia”.

Take `Cn1nnc2c(C(=O)O)ncn2c1=O` [temozolomide acid metabolite]: the “Recovery of radioactivity in urine as this species” value (after temozolomide radioactive dose) was 2.3%.

For the compound `NC(=O)c1[nH]cnc1N` [AIC], the “Exposure relative to the AUC of temozolomide” value (in vivo) is 23%.
